Data as given in paper PMC7462494, “Novel Bi-heterocycles as Potent Inhibitors of Urease and Less Cytotoxic Agents: 3-({5-((2-Amino-1,3-thiazol-4-yl)methyl)-1,3,4-oxadiazol-2-yl}sulfanyl)-N-(un/substituted-phenyl)propanamides” (Iranian Journal of Pharmaceutical Research : IJPR, 2020).
Read-outs that look alike come from different tables or passages of the source.

Legend:
urease = urease (Canavalia ensiformis, UniProt P07374); experiment: Urease inhibition assay (customized Berthelot assay); format: biochemical; conditions: for inhibition at 500 µM: read-out: Urease Inhibition, Inhibition (%)
Chain of urease (P07374 whole entry, looked up): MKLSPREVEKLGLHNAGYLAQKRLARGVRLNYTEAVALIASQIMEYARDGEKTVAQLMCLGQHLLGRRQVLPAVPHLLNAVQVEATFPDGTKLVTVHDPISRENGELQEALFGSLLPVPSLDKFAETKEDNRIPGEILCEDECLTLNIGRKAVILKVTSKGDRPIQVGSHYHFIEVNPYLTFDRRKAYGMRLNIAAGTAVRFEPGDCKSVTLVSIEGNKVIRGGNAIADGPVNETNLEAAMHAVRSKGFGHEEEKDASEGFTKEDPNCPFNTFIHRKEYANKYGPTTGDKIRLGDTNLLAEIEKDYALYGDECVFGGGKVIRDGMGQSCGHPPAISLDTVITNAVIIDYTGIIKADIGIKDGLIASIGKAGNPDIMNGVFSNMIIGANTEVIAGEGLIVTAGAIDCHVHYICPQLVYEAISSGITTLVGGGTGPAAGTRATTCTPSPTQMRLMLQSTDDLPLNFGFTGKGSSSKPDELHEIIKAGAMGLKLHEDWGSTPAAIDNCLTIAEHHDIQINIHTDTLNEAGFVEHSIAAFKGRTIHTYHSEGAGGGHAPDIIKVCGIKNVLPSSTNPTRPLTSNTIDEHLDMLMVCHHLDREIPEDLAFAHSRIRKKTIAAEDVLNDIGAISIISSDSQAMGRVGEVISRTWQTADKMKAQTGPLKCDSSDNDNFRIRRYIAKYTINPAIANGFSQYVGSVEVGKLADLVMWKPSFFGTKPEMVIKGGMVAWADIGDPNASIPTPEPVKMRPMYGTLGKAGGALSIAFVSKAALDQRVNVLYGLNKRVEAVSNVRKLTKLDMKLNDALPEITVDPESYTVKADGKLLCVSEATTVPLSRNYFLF
Procedure: This enzyme assay is the customized form of the commonly known Berthelot assay ([23], [24]). […] The contents were pre-incubated at 37 °C for 5 min. 40 µL of urea stock solution (20 mM) was added to each well with incubation for 10 min at 37 °C. It is followed by the addition of 115 µL phenol hypochlorite reagents (freshly prepared by mixing 45 µL phenol with 70 µL of alkali) per well. For color development, incubation was carried out for further 10 min at 37 °C. The absorbance was measured at 625 nm. The percentage enzyme inhibition and IC50 values were calculated using the following formula:
inhibition%=Control-test/Control×100
Where, Control is the total enzyme activity without inhibitor and Test is the activity in the presence of test compound. IC50 values were calculated using the EZ–Fit Enzyme kinetics software (Perrella Scientific Inc. Amherst, US).
Statistical analysis was performed by Microsoft Excel 2010 for all the thrice measured values and the results are presented as mean ± SEM.

[1] = Hemolytic activity (cytotoxicity through hemolysis); format: cell-based; conditions: bovine, red blood cell (erythrocyte) suspension, pH 7.4, 20 µL compound solution (10 mg/mL) in 180 µL RBCs suspension, room temperature, PBS negative control, Triton positive control
From the text: The erythrocytes separated diluted in phosphate buffer saline of pH 7.4 and a suspension was made.

| Compound | IC50 (urease) [nM] | inhibition at 500 µM (urease) [%] | hemolysis at 30 min, 1 mg/mL [1] [%] | melting point [°C] | Urease Inhibition, Inhibition (%) (urease; at 0.5 mM, mean ± SEM, n = 3) | IC50 (urease; mean ± SEM, n = 3, EZ-Fit Enzyme kinetics software, read-out: Urease Inhibition, IC50) [nM] |
| --- | --- | --- | --- | --- | --- | --- |
| Nc1nc(Cc2nnc(SCCC(=O)Nc3ccccc3)o2)cs1 [Compound 7a, 3-({5-[(2-Amino-1,3-thiazol-4-yl)methyl]-1,3,4-oxadiazol-2-yl}sulfanyl)-N-phenylpropanamide] | 2450 ± 40 | 98.24 ± 0.08 | 11.5 | 190 to 191 | – | – |
| Cc1ccccc1NC(=O)CCSc1nnc(Cc2csc(N)n2)o1 [Compound 7b, 3-({5-[(2-Amino-1,3-thiazol-4-yl)methyl)-1,3,4-oxadiazol-2-yl}sulfanyl)-N-(2-methylphenyl)propanamide] | 2640 ± 30 | 96.42 ± 0.02 | 7.05 | – | – | – |
| Cc1cccc(NC(=O)CCSc2nnc(Cc3csc(N)n3)o2)c1 [Compound 7c, 3-({5-[(2-Amino-1,3-thiazol-4-yl)methyl]-1,3,4-oxadiazol-2-yl}sulfanyl)-N-(3-methylphenyl)propanamide] | 1320 ± 20 | 98.52 ± 0.05 | 5.16 | – | – | – |
| Cc1ccc(NC(=O)CCSc2nnc(Cc3csc(N)n3)o2)cc1 [Compound 7d, 3-({5-[(2-Amino-1,3-thiazol-4-yl)methyl]-1,3,4-oxadiazol-2-yl}sulfanyl)-N-(4-methylphenyl)propanamide] | 1750 ± 10 | 98.13 ± 0.02 | 7.16 | – | – | – |
| Cc1ccc(NC(=O)CCSc2nnc(Cc3csc(N)n3)o2)c(C)c1 [Compound 7e, 3-({5-[(2-Amino-1,3-thiazol-4-yl)methyl]-1,3,4-oxadiazol-2-yl}sulfanyl)-N-(2,4-dimethylphenyl)propanamide] | 1240 ± 10 | 98.19 ± 0.09 | 6.74 | – | – | – |
| Cc1ccc(C)c(NC(=O)CCSc2nnc(Cc3csc(N)n3)o2)c1 [Compound 7f, 3-({5-[(2-Amino-1,3-thiazol-4-yl)methyl]-1,3,4-oxadiazol-2-yl}sulfanyl)-N-(2,5-dimethylphenyl)propanamide] | 5180 ± 60 | 96.26 ± 0.03 | 6.42 | – | – | – |
| Cc1cccc(C)c1NC(=O)CCSc1nnc(Cc2csc(N)n2)o1 [Compound 7g, 3-({5-[(2-Amino-1,3-thiazol-4-yl)methyl]-1,3,4-oxadiazol-2-yl}sulfanyl)-N-(2,6-dimethylphenyl)propanamide] | 2630 ± 30 | 98.52 ± 0.06 | 7.37 | 149 to 150 | – | – |
| Cc1ccc(NC(=O)CCSc2nnc(Cc3csc(N)n3)o2)cc1C [Compound 7h, 3-({5-[(2-Amino-1,3-thiazol-4-yl)methyl]-1,3,4-oxadiazol-2-yl}sulfanyl)-N-(3,4-dimethylphenyl)propanamide] | 2560 ± 20 | 97.28 ± 0.02 | 5.79 | 177 to 178 | – | – |
| Cc1cc(C)cc(NC(=O)CCSc2nnc(Cc3csc(N)n3)o2)c1 [Compound 7i, 3-({5-[(2-Amino-1,3-thiazol-4-yl)methyl]-1,3,4-oxadiazol-2-yl}sulfanyl)-N-(3,5-dimethylphenyl)propanamide] | 3620 ± 10 | 97.31 ± 0.08 | 5.26 | – | – | – |
| CCc1ccccc1NC(=O)CCSc1nnc(Cc2csc(N)n2)o1 [Compound 7j, 3-({5-[(2-Amino-1,3-thiazol-4-yl)methyl]-1,3,4-oxadiazol-2-yl}sulfanyl)-N-(2-ethylphenyl)propanamide] | 2130 ± 10 | 98.12 ± 0.03 | 6.63 | 198 to 199 | – | – |
| CCc1ccc(NC(=O)CCSc2nnc(Cc3csc(N)n3)o2)cc1 [Compound 7k, 3-({5-[(2-amino-1,3-thiazol-4-yl)methyl]-1,3,4-oxadiazol-2-yl}sulfanyl)-N-(4-ethylphenyl)propanamide] | 2850 ± 50 | 97.43 ± 0.07 | 7.16 | – | – | – |
| CCOc1ccc(NC(=O)CCSc2nnc(Cc3csc(N)n3)o2)cc1 [Compound 7l, 3-({5-[(2-Amino-1,3-thiazol-4-yl)methyl]-1,3,4-oxadiazol-2-yl}sulfanyl)-N-(4-ethoxyphenyl)propanamide] | 2170 ± 20 | 97.25 ± 0.04 | 8.11 | – | – | – |
| NC(N)=S [Thiourea, reference compound] | – | – | – | – | Thiourea 98.12 ± 0.18% | 21100 |
| CC(C)(C)CC(C)(C)c1ccc(OCCO)cc1 [Triton-X, reference compound] | – | – | 89 | – | – | – |
